We go through 29 compounds from patent publication US9839639B2, “Neprilysin inhibitors” (THERAVANCE BIOPHARMA R&D IP, LLC, priority 2014, dated 2017).

Molecules are shown by their SMILES. Bounds are passed on as bounds.

The test deals with T1, human NEP (Homo sapiens, UniProt P08473).
T1 construct: purchased R&D Systems, Minneapolis, Minn; 1182-ZN
Nature of the test: In vitro enzyme inhibition assay, inhibitor potency at human NEP. Particulars: recombinant human NEP, fluorogenic peptide substrate 10 μM, 37° C.; values given as ranges. The test is classed as biochemical. As to the method: The inhibitory activities of compounds at human and rat neprilysin (EC 3.4.24.11; NEP) and human angiotensin converting enzyme (ACE) were determined using in vitro assays as described below.
Recombinant human NEP and recombinant human ACE were obtained commercially (R&D Systems, Minneapolis, Minn., catalog numbers 1182-ZN and 929-ZN, respectively). The fluorogenic peptide substrate Mca-D-Arg-Arg-Leu-Dap-(Dnp)-OH (Medeiros et al. (1997) Braz. J. Med. Biol. Res. 30:1157-62; Anaspec, San Jose, Calif.) and Abz-Phe-Arg-Lys(Dnp)-Pro-OH (Araujo et al. (2000) Biochemistry 39:8519-8525; Bachem, Torrance, Calif.) were used in the NEP and ACE assays respectively.
The assays were performed in 384-well white opaque plates at 37° C. using the fluorogenic peptide substrates at a concentration of 10 μM in Assay Buffer (NEP: 50 mM HEPES, pH 7.5, 100 mM NaCl, 0.01% polyethylene glycol sorbitan monolaurate (Tween-20), 10 μM ZnSO4; ACE: 50 mM HEPES, pH 7.5, 100 mM NaCl, 0.01% Tween-20, 1 μM ZnSO4).
Test compounds were assayed over the range of concentrations from 10 μM to 20 pM. Test compounds were added to the enzymes and incubated for 30 minute at 37° C. prior to initiating the reaction by the addition of substrate. Reactions were terminated after 20 minutes of incubation at 37° C. by the addition of glacial acetic acid to a final concentration of 3.6% (v/v).
Plates were read on a fluorometer with excitation and emission wavelengths set to 320 nm and 405 nm, respectively. Inhibition constants were obtained by nonlinear regression of the data using the equation (GraphPad Software, Inc., San Diego, Calif.): v=v0/[1+(I/K′)] where v is the reaction rate, v0 is the uninhibited reaction rate, I is the inhibitor concentration and K′ is the apparent inhibition constant.
Compounds of the invention were tested in this assay and found to have pKi values at human NEP as follows.

One may read the Ki as a dissociation constant, usually derived from enzyme kinetics or from competition with a known ligand.

T1 sequence (P08473 52-750 limits assumed): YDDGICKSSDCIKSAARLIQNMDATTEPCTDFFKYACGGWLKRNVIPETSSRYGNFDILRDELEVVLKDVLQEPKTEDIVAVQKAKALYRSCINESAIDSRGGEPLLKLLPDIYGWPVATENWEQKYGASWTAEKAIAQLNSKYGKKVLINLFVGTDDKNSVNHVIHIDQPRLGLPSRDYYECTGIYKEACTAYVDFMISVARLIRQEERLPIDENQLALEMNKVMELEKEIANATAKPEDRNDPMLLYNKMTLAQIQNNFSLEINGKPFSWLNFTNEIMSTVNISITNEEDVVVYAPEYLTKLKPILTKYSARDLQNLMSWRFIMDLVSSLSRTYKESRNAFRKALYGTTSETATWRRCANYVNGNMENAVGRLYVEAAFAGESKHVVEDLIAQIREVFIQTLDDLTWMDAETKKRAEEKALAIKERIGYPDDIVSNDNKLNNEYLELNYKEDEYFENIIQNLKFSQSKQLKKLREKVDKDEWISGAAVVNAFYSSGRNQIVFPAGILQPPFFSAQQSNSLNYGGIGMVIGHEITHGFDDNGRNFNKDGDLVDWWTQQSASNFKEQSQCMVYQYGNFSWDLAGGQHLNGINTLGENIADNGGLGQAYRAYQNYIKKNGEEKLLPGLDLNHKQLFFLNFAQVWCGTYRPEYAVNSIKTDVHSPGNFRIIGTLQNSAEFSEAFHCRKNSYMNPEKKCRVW

Take `COC[C@](C)(C[C@@H](Cc1ccc(-c2cc(Cl)ccc2F)cc1)NC(=O)c1nc[nH]n1)C(=O)O` [Example 8-7, (2S,4R)-5-(5′-Chloro-2′-fluorobiphenyl-4-yl)-2-methoxymethyl-2-methyl-4-[(1H-[1,2,4]triazole-3-carbonyl)amino]pentanoic acid]: the Ki was 1.26 to 3.16 nM.
`COC[C@](C)(C[C@@H](Cc1ccc(-c2cc(Cl)ccc2F)cc1)NC(=O)c1cn(CCO)nn1)C(=O)O` [Example 8-10, (2S,4R)-5-(5′-Chloro-2′-fluorobiphenyl-4-yl)-4-{[1-(2-hydroxyethyl)-1H-[1,2,3]triazole-4-carbonyl]amino}-2-methoxymethyl-2-methylpentanoic acid]: the inhibition constant (Ki) was 1.26 to 3.16 nM.
Consider `CCCC(CO)(C[C@@H](Cc1ccc(-c2cc(Cl)ccc2F)cc1)NC(=O)c1cnn[nH]1)C(=O)O` (single isomer, unassigned) [Example 15b], for which the pKi result is “≧9.0”.
As to `CCOn1cc(C(=O)N[C@H](Cc2ccc(-c3cc(Cl)ccc3F)cc2)C[C@@](C)(COC)C(=O)O)nn1` [Example 8-8, (2S,4R)-5-(5′-Chloro-2′-fluorobiphenyl-4-yl)-4-[(1-ethoxy-1H-[1,2,3]triazole-4-carbonyl)amino]-2-methoxymethyl-2-methylpentanoic acid], the Ki was no more than 1 nM.
Same read-out and setting: under `COC[C@](C)(C[C@@H](Cc1ccc(-c2cc(Cl)ccc2F)cc1)NC(=O)c1noc(=O)[nH]1)C(=O)O` [Example 7, (2S,4R)-5-(5′-Chloro-2′-fluorobiphenyl-4-yl)-2-methoxymethyl-2-methyl-4-[(5-oxo-4,5-dihydro-[1,2,4]oxadiazole-3-carbonyl)amino]pentanoic Acid] stands no more than 1 nM; under `NCCC(CO)(C[C@@H](Cc1ccc(-c2cc(Cl)ccc2F)cc1)NC(=O)c1cnn[nH]1)C(=O)O` (stereo partly drawn) [Example 17, (R)-2-(2-Amino-ethyl)-5-(5′-chloro-2′-fluorobiphenyl-4-yl)-2-hydroxymethyl-4-[(3H-[1,2,3]triazole-4-carbonyl)amino]pentanoic Acid], 1.26 to 3.16 nM.
Take `CCOC[C@](C)(C[C@@H](Cc1ccc(-c2cc(Cl)ccc2F)cc1)NC(=O)c1ncco1)C(=O)O` [Example 11-1, (2S,4R)-5-(5′-Chloro-2′-fluorobiphenyl-4-yl)-2-ethoxymethyl-2-methyl-4-[(oxazole-2-carbonyl)amino]pentanoic acid]: the Ki is 1.26 to 3.16 nM.
In the case of `COC[C@](C)(C[C@@H](Cc1ccc(-c2cc(Cl)ccc2F)cc1)NC(=O)c1ccc(C(F)(F)F)cn1)C(=O)O` [Example 8-5, (2S,4R)-5-(5′-Chloro-2′-fluorobiphenyl-4-yl)-2-methoxymethyl-2-methyl-4-[(5-trifluoromethylpyridine-2-carbonyl)amino]pentanoic acid], the inhibition constant Ki is no more than 1 nM.
As to `O=C(N[C@H](Cc1ccc(-c2cc(Cl)ccc2F)cc1)CC1(C(=O)O)CCNC1)c1cnn[nH]1` (single isomer, unassigned) [Example 21a], the inhibition constant Ki is no more than 1 nM.
Same read-out and setting: the result for `COC[C@](C)(C[C@@H](Cc1ccc(-c2cc(Cl)ccc2F)cc1)NC(=O)c1cn(OC)nn1)C(=O)O` [Example 8-9, (2S,4R)-5-(5′-Chloro-2′-fluorobiphenyl-4-yl)-2-methoxymethyl-4-[(1-methoxy-1H-[1,2,3]triazole-4-carbonyl)amino]-2-methylpentanoic acid] reads 1.26 to 3.16 nM; that for `Cc1cnc(C(=O)N[C@H](Cc2ccc(-c3cc(Cl)ccc3F)cc2)C[C@@](C)(CN)C(=O)O)o1` [Example 4-2, (2S,4R)-2-Aminomethyl-5-(5′-chloro-2′-fluorobiphenyl-4-yl)-2-methyl-4-[(5-methyl-oxazole-2-carbonyl)amino]pentanoic acid], 1.26 to 3.16 nM.
For the compound `COC[C@](C)(C[C@@H](Cc1ccc(-c2cc(Cl)ccc2F)cc1)NC(=O)c1ncco1)C(=O)O` [Example 8-6, (2S,4R)-5-(5′-Chloro-2′-fluorobiphenyl-4-yl)-2-methoxymethyl-2-methyl-4-[(oxazole-2-carbonyl)amino]pentanoic acid], the inhibitory constant (Ki) was no more than 1 nM.
In the case of `COC[C@](C)(C[C@@H](Cc1ccc(-c2cc(Cl)ccc2F)cc1)NC(=O)c1ncccn1)C(=O)O` [Example 8-4, (2S,4R)-5-(5′-Chloro-2′-fluorobiphenyl-4-yl)-2-methoxymethyl-2-methyl-4-[(pyrimidine-2-carbonyl)amino]pentanoic acid], the Ki was no more than 1 nM.
The same measure, in the same setting: the result for `C[C@](C[C@@H](Cc1ccc(-c2cc(Cl)ccc2F)cc1)NC(=O)c1c[nH]nn1)(C(N)=O)C(=O)O` [Example 5, (2S,4R)-2-Carbamoyl-5-(5′-chloro-2′-fluorobiphenyl-4-yl)-2-methyl-4-[(1H-[1,2,3]triazole-4-carbonyl)amino]pentanoic Acid] reads no more than 1 nM; that for `C=CCC(CO)(C[C@@H](Cc1ccc(-c2cc(Cl)ccc2F)cc1)NC(=O)c1cnn[nH]1)C(=O)O` (single isomer, unassigned) [Example 19a], no more than 1 nM.
For `COC[C@](C)(C[C@@H](Cc1ccc(-c2cc(Cl)ccc2F)cc1)NC(=O)c1ncc(C)o1)C(=O)O` [Example 8-1, (2S,4R)-5-(5′-Chloro-2′-fluorobiphenyl-4-yl)-2-methoxymethyl-2-methyl-4-[(5-methyloxazole-2-carbonyl)amino]pentanoic acid], the inhibition constant Ki is no more than 1 nM.
As to `CCOC[C@](C)(C[C@@H](Cc1ccc(-c2cc(Cl)ccc2F)cc1)NC(=O)c1ncccn1)C(=O)O` [Example 11-3, (2S,4R)-5-(5′-Chloro-2′-fluorobiphenyl-4-yl)-2-ethoxymethyl-2-methyl-4-[(pyrimidine-2-carbonyl)amino]pentanoic acid], the Ki was 1.26 to 3.16 nM.
Regarding `CC(C[C@@H](Cc1ccc(-c2cc(Cl)ccc2F)cc1)NC(=O)c1c[nH]nn1)(C(=O)O)C(=O)O` [Example 6, 2-{(R)-3-(5′-Chloro-2′-fluorobiphenyl-4-yl)-2-[(1H-[1,2,3]triazole-4-carbonyl)amino]propyl}-2-methylmalonic Acid], the Ki is no more than 1 nM.
With `CC(=O)c1cc(C(=O)N[C@H](Cc2ccc(-c3cc(Cl)ccc3F)cc2)C[C@@](C)(CN)C(=O)O)[nH]n1` [Example 4-1, (2S,4R)-4-[(5-Acetyl-2H-pyrazole-3-carbonyl)-amino]-2-aminomethyl-5-(5′-chloro-2′-fluorobiphenyl-4-yl)-2-methylpentanoic acid], the inhibition constant (Ki) is 3.98 to 10 nM.
Regarding `CCC(CO)(C[C@@H](Cc1ccc(-c2cc(Cl)ccc2F)cc1)NC(=O)c1cnn[nH]1)C(=O)O` (single isomer, unassigned) [Example 14b], the pKi entry is recorded as “≧9.0”.
On to `CC(N)(C[C@@H](Cc1ccc(-c2cc(Cl)ccc2F)cc1)NC(=O)c1cnn[nH]1)C(=O)O` (single isomer, unassigned) [Example 1a], for which the Ki is 3.98 to 10 nM.
For `CC(C#N)(C[C@@H](Cc1ccc(-c2cc(Cl)ccc2F)cc1)NC(=O)c1cnn[nH]1)C(=O)O` (single isomer, unassigned) [Example 12a], the Ki is 39.8 to 100 nM.
Same read-out and setting: the result for `CCC(C#N)(C[C@@H](Cc1ccc(-c2cc(Cl)ccc2F)cc1)NC(=O)c1cnn[nH]1)C(=O)O` (single isomer, unassigned) [Example 23b] reads 126 to 316 nM.
Take `C[C@@](CN)(C[C@@H](Cc1ccc(-c2cc(Cl)ccc2F)cc1)NC(=O)c1cnn[nH]1)C(=O)O` [Example 2, (2S,4R)-2-Aminomethyl-5-(5′-chloro-2′-fluorobiphenyl-4-yl)-2-methyl-4-[(3H-[1,2,3]triazole-4-carbonyl)amino]pentanoic Acid]: the inhibitory constant (Ki) was no more than 1 nM.
Still for that read-out and setting: the result for `O=C(N[C@H](Cc1ccc(-c2cc(Cl)ccc2F)cc1)CC(CO)(CCO)C(=O)O)c1cnn[nH]1` (single isomer, unassigned) [Example 16b] reads 12.6 to 31.6 nM.
Regarding `O=C(N[C@H](Cc1ccc(-c2cc(Cl)ccc2F)cc1)CC1(C(=O)O)CCOC1)c1cnn[nH]1` (single isomer, unassigned) [Example 20b], the pKi result is given as “≧9.0”.
For `CC(=O)N1CCC(C[C@@H](Cc2ccc(-c3cc(Cl)ccc3F)cc2)NC(=O)c2cnn[nH]2)(C(=O)O)C1` (single isomer, unassigned) [Example 22a], the Ki is no more than 1 nM.
On to `COC[C@](C)(C[C@@H](Cc1ccc(-c2cc(Cl)ccc2F)cc1)NC(=O)c1ccc(Cl)cn1)C(=O)O` [Example 8-3, (2S,4R)-5-(5′-Chloro-2′-fluorobiphenyl-4-yl)-4-[(5-chloropyridine-2-carbonyl)amino]-2-methoxymethyl-2-methylpentanoic acid], for which the Ki was 1.26 to 3.16 nM.
The same measure, in the same setting: under `CCOC[C@](C)(C[C@@H](Cc1ccc(-c2cc(Cl)ccc2F)cc1)NC(=O)c1ccc(Cl)cn1)C(=O)O` [Example 11-2, (2S,4R)-5-(5′-Chloro-2′-fluorobiphenyl-4-yl)-4-[(5-chloropyridine-2-carbonyl)amino]-2-ethoxymethyl-2-methylpentanoic acid] stands no more than 1 nM.
